Patent US9744174B2 (DemeRx, Inc., priority 2013, dated 2017)
“Also recorded” adds a separate entry of the source.

Legend:
[1] = varies with the pH of the urine; cited from earlier work
male Sprague Dawley rats = experiment: Noribogaine-methadone interaction study: mortality and postdose observations after oral dosing; conditions: rats; for Number Dead after Methadone: 10 dosed
[2] = as above; conditions: male, Sprague Dawley, rat, in vivo, po, methadone LD50, rats, oral
[3] = Ascending single-dose pharmacokinetics of noribogaine and noribogaine glucuronide (plasma, urine; LCMSMS); conditions: for AUC0-216 / AUC0-∞ / Cmax / Tmax / t1/2 / CL/F: mean (SD)
[4] = tested on: healthy, drug-free male volunteers; experiment: Safety and tolerability: adverse events, vital signs, ECG; assay type: in vivo, human
Method: (§1) Safety and tolerability of noribogaine were tested in the group of volunteers from Example 2. […] Safety evaluations included clinical monitoring, recording of adverse events (AEs), safety laboratory tests, vital signs, ECG telemetry from −2 h to 6 h after dosing, and 12-lead electrocardiograms (ECGs) up to 216 hours post-dosing.

[5] = tested on: opioid-dependent participants; experiment: QT interval prolongation in the efficacy trial; assay type: in vivo, human
Method: (§2) The efficacy of noribogaine in humans was evaluated in opioid-dependent participants in a randomized, placebo-controlled, double-blind trial. […] See U.S. Provisional Application No. 61/852,485, filed Mar. 15, 2013, which is incorporated herein by reference in its entirety.
(§3) In the first cohort, six patients were orally administered a single dose of 60 mg noribogaine, and three patients received placebo. In the second cohort, five patients were orally administered a single dose of 120 mg noribogaine, and three patients received placebo.

[6] = tested on: opioid-dependent participants; experiment: Efficacy trial: time to resumption of opioid substitution treatment (OST); assay type: in vivo, human
Method: as §2, §3

[7] = tested on: healthy, drug-free male volunteers; experiment: Cold pressor test (analgesic effect); assay type: in vivo, human; conditions: single oral 3-60 mg; duration of hand immersion and VAS pain scores vs placebo
Method: Analgesic effect was assessed based on duration of hand immersion in ice water and on visual analog scale (VAS) pain scores upon hand removal from the water bath.
as §1

mu receptor = conditions: Pearl et al., Brain Research, 675:342-344 (1995); read-out: affinity constant (K value) for the mu receptor; cited from earlier work
[8] = tested on: healthy, drug-free male volunteers; experiment: Pupillometry (pupillary miosis) after single oral dose; assay type: in vivo, human; conditions: single oral 3, 10, 30 or 60 mg, up to 216 hours post-dosing
Method: Pulse oximetry and capnography data were collected continuously using a GE Carescape B650 monitoring system from 2 hours prior to dosing and until six hours after dosing, and thereafter at 12, 24, 48 and 72 hours post-dosing. […] Pupillary miosis was assessed by pupillometry.

[9] = plasma noribogaine glucuronide after single oral 30 mg noribogaine
[10] = plasma noribogaine glucuronide after single oral 60 mg noribogaine
[11] = plasma noribogaine, single oral 3 mg
[12] = plasma noribogaine, single oral 10 mg
[13] = plasma noribogaine, single oral 30 mg
[14] = plasma noribogaine, single oral 60 mg
[15] = oral, noribogaine 50 mg/kg then methadone 0 mg/kg (vehicle)
[16] = oral, noribogaine 150 mg/kg then methadone 0 mg/kg (vehicle)

For CC=C1N(C)C(C)CC1(c1ccccc1)c1ccccc1 (centres unmarked) [EDDP, 2-ethylidene-1.5-dimethyl-3.3diphenylpyrrolidine], the “Urinary excretion (percentage of a dose)” value [1] is given as 3-25%.

In the case of CCC(=O)C(CC(C)N(C)C)(c1ccccc1)c1ccccc1 (centres unmarked) [Methadone, reference compound], the “Urinary excretion (percentage of a dose)” value [1] is listed as 5-50%, the “Number Dead after Methadone” value (male Sprague Dawley rats; oral, noribogaine 0 mg/kg then methadone 1 mg/kg (table; b148: 10 mg/kg)) is listed as 0 and the “Number Dead after Methadone” value (male Sprague Dawley rats; oral, noribogaine 0 mg/kg then methadone 3 mg/kg (table; b148: 30 mg/kg)) is listed as 1. For the same compound, the “Number Dead after Methadone” value (male Sprague Dawley rats; oral, noribogaine 0 mg/kg then methadone 5 mg/kg (table; b148: 50 mg/kg)) was 3, the “Persistence of slight languid behavior” value (male Sprague Dawley rats; oral, methadone alone at 10 mg/kg) was 1.75 h and the Postdose observations (male Sprague Dawley rats; oral, methadone alone at 50 mg/kg) was “prostrate, had tremors, shallow respirations”. The “Persistence of adverse observations following the methadone dose” value (male Sprague Dawley rats; oral, methadone at doses of 30 and 50 mg/kg) was 3 h, the Postdose observations (male Sprague Dawley rats; oral, within one hour following methadone alone at 10 and 30 mg/kg) was “slight ataxia, salivation, hunched posture, and languid behavior” and the LD50 ([2]; after 0 mg/kg of noribogaine) was 68.2 mg/kg. The LD50 ([2]; after 50 mg/kg of noribogaine) was 29.7 mg/kg and the LD50 ([2]; after 150 mg/kg of noribogaine) was 8.86 mg/kg.

With CC[C@H]1C[C@@H]2C[C@H]3c4[nH]c5ccc(OC6OC(C(=O)O)C(O)C(O)C6O)cc5c4CCN(C2)[C@@H]13 (some centres unmarked) [Noribogaine glucuronide] the “Proportion of noribogaine glucuronide Cmax and AUC relative to noribogaine” value ([3]; both dose groups (30 mg, 60 mg)) was 3-4%, the AUC0-216 [3, 9] was 25.7 (9.1) ng · hr/ml and the “AUC0-∞” value [3, 9] was 25.8 (9.3) ng · hr/ml. For the same compound, the Cmax [3, 9] was 1.8 (0.6) ng/ml, the Tmax [3, 9] was 3.0 (0.6) hr and the t1/2 [3, 9] was 20.6 (4.9) hr. For the same compound, the AUC0-216 [3, 10] was 65.0 (21.5) ng · hr/ml, the “AUC0-∞” value [3, 10] was 67.1 (21.9) ng · hr/ml and the Cmax [3, 10] was 4.1 (1.2) ng/ml. For the same compound, the Tmax [3, 10] was 3.8 (1.2) hr, the t1/2 [3, 10] was 23.1 (3.0) hr and the “Time of peak concentrations after noribogaine dosing” value ([3]; plasma noribogaine glucuronide, 30 mg and 60 mg dose groups) was 3 to 4 h. For the same compound, the “Time by which detected in all subjects” value ([3]; plasma noribogaine glucuronide, 30 mg and 60 mg noribogaine dose groups) was no more than 0.75 h.

In the case of CC[C@H]1C[C@H]2C[C@H]3c4[nH]c5ccc(O)cc5c4CCN(C2)[C@@H]13 [Noribogaine], the “Dose-proportionality of Cmax and AUC” value ([3]; noribogaine, 3-60 mg, linear regression) is reported as “increased linearly with dose”, the “Time of peak concentrations after oral dosing” value ([3]; noribogaine, across dose groups 3-60 mg) is reported as 2 to 3 h and the CL/F ([3]; noribogaine, single oral 3 mg) is reported as 41.4 (7.0) L/h. The CL/F ([3]; noribogaine, single oral 10 mg) was 42.3 (12.0) L/h, the CL/F ([3]; noribogaine, single oral 30 mg) was 46.9 (16.4) L/h and the CL/F ([3]; noribogaine, single oral 60 mg) was 34.0 (11.4) L/h. For the same compound, the AUC0-216 [3, 11] was 72.2 (13.2) ng · hr/ml, the Cmax [3, 11] was 5.2 (1.4) ng/ml and the Tmax [3, 11] was 1.9 (0.6) hr. For the same compound, the t1/2 [3, 11] was 40.9 (8.7) hr, the AUC0-216 [3, 12] was 251.4 (78.5) ng · hr/ml and the Cmax [3, 12] was 14.5 (2.1) ng/ml. The Tmax [3, 12] was 2.9 (1.8) hr, the t1/2 [3, 12] was 49.2 (11.5) hr and the AUC0-216 [3, 13] was 677.6 (221.1) ng · hr/ml. For the same compound, the Tmax [3, 13] was 1.8 (0.6) hr, the t1/2 [3, 13] was 27.6 (7.0))^ hr and the AUC0-216 [3, 14] was 1935.4 (725.4) ng · hr/ml. The Tmax [3, 14] was 2.4 (0.6) hr, the t1/2 [3, 14] was 29.1 (9.3) hr and the “Number of adverse events reported” value ([4]; 3 mg dose group, two subjects) was “five”. The “Number of adverse events reported” value ([4]; 10 mg dose group, single subject) was “one”, the “Number of adverse events reported” value ([4]; 30 mg dose group, single subject) was “one” and the “Adverse events, Mild” value ([4]; Dose 3 mg) was “Dizziness; also recorded: Epistaxis; also recorded: Headache; also recorded: Back pain”. The “Adverse events, Moderate” value ([4]; Dose 3 mg) was “Headache”, the “Adverse events, Mild” value ([4]; Dose 10 mg) was “Headache” and the “Adverse events, Mild” value ([4]; Dose 30 mg) was “Headache”. The “Single increase in QTcF” value ([4]; one subject dosed with 10 mg, 24 hours post-dosing) was greater than 60 ms, the “Oximetry, capnography, respiratory rate” value ([4]; single oral 3-60 mg) was “no changes in oximetry or capnography, or changes in respiratory rate” and the “Vital signs and safety laboratory tests” value ([4]; single oral 3-60 mg) was “no changes in vital signs or safety laboratory tests of note”. The QTcF values ([4]; single oral 3-60 mg, at any time) was no more than 500 ms, the “Change in the QT interval prolongation” value ([5]; 180 mg) was “above 30 ms” and the “Mean prolongation of the QT interval” value ([5]; first cohort (60 mg noribogaine or placebo)) was “less than 10 ms”. For the same compound, the “Mean prolongation of the QT interval” value ([5]; second cohort (120 mg noribogaine or placebo)) was “less than 40 ms”, the Therapeutic activity ([6]; 60 mg to 180 mg, inverted-U curve) was “therapeutic activity at all concentrations” and the “Estimated serum noribogaine level at which significant withdrawal symptoms return and OST is resumed” value ([6]; 120 mg presumed treated patients, estimated from FIG. 4 profile) was 50 to 60 ng/mL. For the same compound, the “Average time to resumption of OST” value ([6]; 180 mg, 6 presumed (imputed) noribogaine-treated patients) was “approximately 11.4 hours”, the “Time to resumption of OST” value ([6]; (putatively) administered 60 mg noribogaine) was 9.6 h and the “Average time to resumption of opioids” value ([6]; second cohort, blinded: single oral 120 mg noribogaine (5 patients) or placebo (3)) was “approximately 22 hours”. For the same compound, the “Adverse effects, including hallucinatory effects” value ([6]; single oral 60 mg or 120 mg) was “No adverse effects”, the “Analgesic effect in the cold pressor test” value [7] was “no analgesic effect” and the “Number Dead after Methadone” value (male Sprague Dawley rats; [15]) was 0. For the same compound, the “Number Dead after Methadone” value (male Sprague Dawley rats; [16]) was 0, the “Number Dead after Methadone” value (male Sprague Dawley rats; oral, noribogaine 150 mg/kg then methadone 0 mg/kg (vehicle), listed as noribogaine) was “no deaths” and the Postdose observations (male Sprague Dawley rats; oral, approximately 5 hours following noribogaine at 50 mg/kg, a few animals) was “languid behavior and tremors involving the entire body”. For the same compound, the Postdose observations (male Sprague Dawley rats; oral, approximately 5 hours following noribogaine at 150 mg/kg) was “Salivation, languid behavior, and ataxia”, the Postdose observations (male Sprague Dawley rats; oral, following noribogaine 50 and 150 mg/kg) was “slight ataxia, salivation (slight or severe), and hunched posture” and the “Percentage of animals with observations of ataxia and salivation” value (male Sprague Dawley rats; oral, noribogaine 50 mg/kg) was 30-40%. For the same compound, the “% Dead after Methadone” value (male Sprague Dawley rats; [15]) was 0%, the “Percentage of animals with observations of ataxia and salivation” value (male Sprague Dawley rats; oral, noribogaine 150 mg/kg) was 60-70% and the “% Dead after Methadone” value (male Sprague Dawley rats; [16]) was 0%. The “Persistence of observations following dosing” value (male Sprague Dawley rats; oral, noribogaine 50 and 150 mg/kg, before methadone) was “up to 4 hours”, the “Persistence of adverse observations following dosing” value (male Sprague Dawley rats; oral, noribogaine alone) was 6.5 to 7 h and the Mortality (male Sprague Dawley rats; oral, noribogaine at doses of 0, 50, and 150 mg/kg followed by the interaction article vehicle) was “no mortality”. The “Effect on mortality associated with oral methadone” value (male Sprague Dawley rats; oral noribogaine at doses of 50 and 150 mg/kg) was “potentiates the mortality”, the Ki (mu receptor) was 2.66 µM and the “Pupillary constriction (pupil diameter)” value [8] was “no evidence of pupillary constriction”.

In the case of CC[C@H]1CC2C[C@H]3c4[nH]c5ccc(OC)cc5c4CCN(C2)C13 [ibogaine, reference compound], the Ki (mu receptor) is listed as 11 µM.
